Measurements from patent US20210369615A1, “SOLID ORAL FORMULATIONS OF AMPHOTERICIN B” (iCo Therapeutics Inc., priority 2018, published 2021).
Where “and” joins values, the source holds several entries; their conditions need not be identical. Equal entries are not always repeated.

Experiment: Phase 1 single dose escalation pharmacokinetic study, Amphotericin B in human plasma
Format: in vivo
Settings: for Amphotericin B concentration: 800 mg dose
Protocol: A phase 1, randomized, double-blind, placebo-controlled, single dose escalation study was performed to evaluate the pharmacokinetic parameters after administration of a single dose of Formula 1A. 100 mg (FIG. 10A), 200 mg (FIG. 10B), 400 mg (FIG. 10C) and 800 mg (FIG. 10D) doses were investigated in this study.
For each dose, AmpB or a placebo was administered, and blood samples were obtained pre-dose, and post-dosing at 0.5 hr, 1 hr, 2 hr, 3 hr, 4 hr, 6 hr, 8 hr, 10 hr, 12 hr, 24 hr, 36 hr, 48 hr, 60 hr, 72 hr, 144 hr, and 192 hr. Pharmacokinetic analysis was performed using Phoenix™ WinNonlin® (Pharsight Corporation). Doses and sampling times were entered as provided by the sponsor. Dose normalised parameters, and descriptive statistics were calculated using Phoenix™ WinNonlin®.
Where Ct is the last measurable concentration and Kel is the elimination rate constant estimated using log-linear regression during the terminal elimination phase. • t½: Elimination half-life, determined by ln(2)/Kel • CL/f: Observed Systemic clearance, calculated as dose/AUC • Vz: Observed Volume of distribution during the terminal phase, calculated as CL/Kel

[1] = single 100 mg dose (Formula 1A), Geometric Mean, N 6
[2] = single 100 mg dose (Formula 1A), Mean, N 6
[3] = single 100 mg dose (Formula 1A), Median, N 6
[4] = single 100 mg dose (Formula 1A), individual subjects A, B, C, D, F, H
[5] = single 200 mg dose (Formula 1A), Geometric Mean, N 6
[6] = single 200 mg dose (Formula 1A), Mean, N 6
[7] = single 200 mg dose (Formula 1A), Median, N 6
[8] = single 200 mg dose (Formula 1A), individual subjects I, 3, K, M, N, P
[9] = single 400 mg dose (Formula 1A), Geometric Mean, N 6
[10] = single 400 mg dose (Formula 1A), Mean, N 6
[11] = single 400 mg dose (Formula 1A), Median, N 6
[12] = single 400 mg dose (Formula 1A), individual subjects R, S, T, U, V, W

## C[C@@H]1[C@H](O)[C@@H](C)/C=C/C=C/C=C/C=C/C=C/C=C/C=C/[C@H](O[C@@H]2O[C@H](C)[C@@H](O)[C@H](N)[C@@H]2O)C[C@@H]2O[C@](O)(C[C@@H](O)C[C@@H](O)[C@H](O)CC[C@@H](O)C[C@@H](O)CC(=O)O[C@H]1C)C[C@H](O)[C@H]2C(=O)O [Amphotericin B]
Nominal hour 0.5, individual subjects
  Amphotericin B concentration: BQL
Nominal hour 1, individual subjects
  Amphotericin B concentration: 0.791 ng/mL and BQL (5×)
Nominal hour 2, individual subjects
  Amphotericin B concentration: 7.683 ng/mL and 8.234 ng/mL and 2.414 ng/mL and 5.164 ng/mL and 3.206 ng/mL and 4.175 ng/mL
Nominal hour 4, individual subjects
  Amphotericin B concentration: 16.397 ng/mL and 28.318 ng/mL and 18.814 ng/mL and 17.942 ng/mL and 23.486 ng/mL and 20.176 ng/mL
Nominal hour 6, individual subjects
  Amphotericin B concentration: 29.902 ng/mL and 40.067 ng/mL and 30.628 ng/mL and 24.140 ng/mL and 33.962 ng/mL and 31.375 ng/mL
Nominal hour 8, individual subjects
  Amphotericin B concentration: 22.535 ng/mL and 31.543 ng/mL and 30.838 ng/mL and 27.279 ng/mL and 39.722 ng/mL and 22.816 ng/mL
Nominal hour 10, individual subjects
  Amphotericin B concentration: 21.595 ng/mL and 29.990 ng/mL and 25.996 ng/mL and 32.914 ng/mL and 42.805 ng/mL and 22.226 ng/mL
Nominal hour 12, individual subjects
  Amphotericin B concentration: 21.001 ng/mL and 31.865 ng/mL and 22.810 ng/mL and 27.866 ng/mL and 40.021 ng/mL and 21.390 ng/mL
Nominal hour 24, individual subjects
  Amphotericin B concentration: 16.218 ng/mL and 14.674 ng/mL and 23.607 ng/mL and 14.816 ng/mL and 19.124 ng/mL and 26.064 ng/mL
Nominal hour 36, individual subjects
  Amphotericin B concentration: 10.661 ng/mL and 16.074 ng/mL and 13.715 ng/mL and 9.365 ng/mL and 12.504 ng/mL and 19.218 ng/mL
Nominal hour 48, individual subjects
  Amphotericin B concentration: 6.472 ng/mL and 12.880 ng/mL and 12.291 ng/mL and 7.395 ng/mL and 8.947 ng/mL and 13.166 ng/mL
Nominal hour 63, individual subjects
  Amphotericin B concentration: 6.398 ng/mL and 10.642 ng/mL and 7.859 ng/mL and 3.935 ng/mL and 6.865 ng/mL and 9.972 ng/mL
Nominal hour 72, individual subjects
  Amphotericin B concentration: 5.044 ng/mL and 10.165 ng/mL and 6.793 ng/mL and 2.412 ng/mL and 3.808 ng/mL and 8.297 ng/mL
Nominal hour 144, individual subjects
  Amphotericin B concentration: 0.539 ng/mL and 2.254 ng/mL and 1.380 ng/mL and 0.329 ng/mL and 0.518 ng/mL and 1.905 ng/mL
Nominal hour 192, individual subjects
  Amphotericin B concentration: BQL (3×) and 0.726 ng/mL and 0.132 ng/mL and 0.243 ng/mL
pre-dose, individual subjects
  Amphotericin B concentration: BQL
[1]
  % AUCexp: 16.37%
  AUCO-inf: 1155.07 ng·h/mL
  AUCO-t: 865.75 ng·h/mL
  CL/F: 86574.82 mL/h
  Cmax: 29.45 ng/mL
  Kel: 0.02 h⁻¹
  Tmax: 6.00 h
  T½: 28.42 h
  V/F: 3549117.10 mL
[2]
  % AUCexp: 23.01%
  AUCO-inf: 1329.45 ng·h/mL
  AUCO-t: 912.51 ng·h/mL
  CL/F: 96064.72 mL/h
  Cmax: 30.22 ng/mL
  Kel: 0.03 h⁻¹
  Tmax: 6.00 h
  T½: 31.80 h
  V/F: 3656853.27 mL
[3]
  % AUCexp: 16.74%
  AUCO-inf: 1029.80 ng·h/mL
  AUCO-t: 759.65 ng·h/mL
  CL/F: 102549.85 mL/h
  Cmax: 28.02 ng/mL
  Kel: 0.03 h⁻¹
  Tmax: 6.00 h
  T½: 27.27 h
  V/F: 3591414.60 mL
[4]
  % AUCexp: 12.17% and 44.38% and 21.32% and 9.08% and 47.20% and 3.91%
  AUCO-inf: 723.90 ng·h/mL and 1362.29 ng·h/mL and 1267.06 ng·h/mL and 788.16 ng·h/mL and 3042.77 ng·h/mL and 792.54 ng·h/mL
  AUCO-t: 635.82 ng·h/mL and 757.71 ng·h/mL and 996.95 ng·h/mL and 716.57 ng·h/mL and 1606.43 ng·h/mL and 761.59 ng·h/mL
  CL/F: 138140.40 mL/h and 73405.78 mL/h and 78922.85 mL/h and 126877.64 mL/h and 32864.80 mL/h and 126176.85 mL/h
  Cmax: 22.66 ng/mL and 24.41 ng/mL and 30.05 ng/mL and 25.98 ng/mL and 43.57 ng/mL and 34.67 ng/mL
  Kel: 0.03 1/hr and 0.01 1/hr (2×) and 0.02 1/hr and 0.04 1/hr and 0.05 1/hr
  Tmax: 6.00 h
  T½: 22.60 h and 47.37 h and 31.94 h and 19.37 h and 55.13 h and 14.42 h
  V/F: 4503070.74 mL and 5016960.70 mL and 3637239.70 mL and 3545589.51 mL and 2613781.85 mL and 2624477.13 mL
[5]
  % AUCexp: 13.76%
  AUCO-inf: 1040.21 ng·h/mL
  AUCO-t: 822.65 ng·h/mL
  CL/F: 192268.01 mL/h
  Cmax: 28.66 ng/mL
  Kel: 0.03 h⁻¹
  Tmax: 6.29 h
  T½: 25.39 h
  V/F: 7043125.41 mL
[6]
  % AUCexp: 19.01%
  AUCO-inf: 1066.59 ng·h/mL
  AUCO-t: 856.21 ng·h/mL
  CL/F: 197223.58 mL/h
  Cmax: 29.70 ng/mL
  Kel: 0.03 h⁻¹
  Tmax: 6.33 h
  T½: 29.35 h
  V/F: 8022007.31 mL
[7]
  % AUCexp: 15.83%
  AUCO-inf: 1061.32 ng·h/mL
  AUCO-t: 804.02 ng·h/mL
  CL/F: 189651.36 mL/h
  Cmax: 28.62 ng/mL
  Kel: 0.03 h⁻¹
  Tmax: 6.00 h
  T½: 24.59 h
  V/F: 7174305.73 mL
[8]
  % AUCexp: 51.97% and 15.07% and 6.50% and 16.58% and 4.05% and 19.85%
  AUCO-inf: 1241.16 ng·h/mL and 1146.01 ng·h/mL and 1438.52 ng·h/mL and 737.08 ng·h/mL and 860.11 ng·h/mL and 976.64 ng·h/mL
  AUCO-t: 596.14 ng·h/mL and 973.27 ng·h/mL and 1344.94 ng·h/mL and 614.86 ng·h/mL and 825.30 ng·h/mL and 782.74 ng·h/mL
  CL/F: 161138.94 mL/h and 174518.59 mL/h and 139032.26 mL/h and 271340.46 mL/h and 232527.11 mL/h and 204784.12 mL/h
  Cmax: 18.77 ng/mL and 27.35 ng/mL and 42.46 ng/mL and 23.41 ng/mL and 36.31 ng/mL and 29.90 ng/mL
  Kel: 0.01 1/hr and 0.03 1/hr (3×) and 0.05 1/hr (2×)
  Tmax: 6.00 h and 8.00 h
  T½: 68.82 h and 24.69 h and 15.32 h and 24.50 h and 15.26 h and 27.53 h
  V/F: 15999011.64 mL and 6215853.68 mL and 3073693.76 mL and 9591266.45 mL and 5119460.58 mL and 8132757.78 mL
[9]
  % AUCexp: 25.23%
  AUCO-inf: 1799.36 ng·h/mL
  AUCO-t: 1045.59 ng·h/mL
  CL/F: 222300.98 mL/h
  Cmax: 28.16 ng/mL
  Kel: 0.02 h⁻¹
  Tmax: 7.11 h
  T½: 42.43 h
  V/F: 13606337.94 mL
[10]
  % AUCexp: 36.21%
  AUCO-inf: 2494.19 ng·h/mL
  AUCO-t: 1148.77 ng·h/mL
  CL/F: 300584.11 mL/h
  Cmax: 29.04 ng/mL
  Kel: 0.02 h⁻¹
  Tmax: 7.33 h
  T½: 57.04 h
  V/F: 15172419.27 mL
[11]
  % AUCexp: 33.41%
  AUCO-inf: 2029.33 ng·h/mL
  AUCO-t: 1089.21 ng·h/mL
  CL/F: 197696.44 mL/h
  Cmax: 28.44 ng/mL
  Kel: 0.02 h⁻¹
  Tmax: 6.00 h
  T½: 39.03 h
  V/F: 12667205.14 mL
[12]
  % AUCexp: 73.99% and 4.55% and 35.27% and 11.36% and 31.55% and 60.51%
  AUCO-inf: 7138.99 ng·h/mL and 981.05 ng·h/mL and 1918.71 ng·h/mL and 520.98 ng·h/mL and 2265.43 ng·h/mL and 2139.96 ng·h/mL
  AUCO-t: 1856.79 ng·h/mL and 936.40 ng·h/mL and 1242.03 ng·h/mL and 461.79 ng·h/mL and 1550.60 ng·h/mL and 845.03 ng·h/mL
  CL/F: 56030.30 mL/h and 407726.35 mL/h and 208473.83 mL/h and 767787.87 mL/h and 176567.28 mL/h and 186919.05 mL/h
  Cmax: 41.12 ng/mL and 26.38 ng/mL and 30.49 ng/mL and 21.86 ng/mL and 34.26 ng/mL and 20.15 ng/mL
  Kel: 0.00 1/hr and 0.05 1/hr and 0.02 1/hr (2×) and 0.03 1/hr and 0.01 1/hr
  Tmax: 10.00 h and 6.00 h
  T½: 142.05 h and 13.66 h and 46.06 h and 24.18 h and 32.01 h and 84.28 h
  V/F: 11482617.37 mL and 8037364.81 mL and 13851792.91 mL and 26779550.10 mL and 8154849.30 mL and 22728341.15 mL
